Laboratory results taken from patent US6723710B2, “Compositions for inhibiting arginase activity” (The Trustees of the University of Pennsylvania, priority 1997, dated 2004).
“Also recorded” adds a separate entry of the source.

Key:
[1] = target: liver arginase activity; assay: arginase activity in liver homogenate; type: biochemical, opossum
Source text: Tissue samples of the opossum internal anal sphincter muscle (IAS), adjoining rectal tissue, liver, and brain were homogenized using an ULTRATURRAX™ tissue homogenizer (Tekamr, Cincinnati, Ohio) in a solution comprising 10 millimolar Tris-HCl, 150 millimolar KCl, and 25 millimolar MnCl2, at pH 7.4. The homogenates were dialyzed overnight against the same solution. Dialyzed homogenates were centrifuged to remove insoluble material and concentrated with Amicon CENTRICON™ 30 microconcentrators to yield stock protein preparations having protein concentrations of 2.4 milligrams per milliliter for IAS smooth muscle, 3.6 milligrams per milliliter for rectal smooth muscle, 3 milligrams per milliliter for brain, and 17.5 milligrams per milliliter for liver. Protein concentrations were estimated with the Pierce Coomassie Protein Reagent kit using bovine serum albumin as a standard.
Arginase activity in tissue homogenates was evaluated using the radioactive L-[guanidino^14C]arginine assay of Rüegg and Russell (1980, Anal. Biochem. 102:206-212). Assays were performed using a solution comprising 100 millimolar CHES-NaOH and 0.1 millimolar MnCl2 at pH 9.0. The reactions were initiated by addition of 5 microliters of tissue homogenate to 45 microliters of reaction mixture that contained the CHES buffer, the appropriate concentration of arginine (0.5 to 5 millimolar) and about 5.0×10^4 counts per minute of L-[guanidino-^14C]arginine. IAS, rectal muscle, and brain homogenates were incubated with the assay mixture at room temperature for one hour, and the liver sample was incubated for 5 minutes. The reactions were stopped by addition of 200 microliters of a stop solution containing 0.25 molar acetic acid, 7 molar urea, and 10 millimolar […] at pH 4.5. Arginase has essentially no activity at the low pH of the stop solution. [^14C] Urea was separated from non-reacted L-[guanidino-^14C]arginine by treatment with 200 μl of 1:1 v/v slurry of DOWEX™ 50W-X8 in water, and quantitated by adding 200 microliters of the supernatant from the DOWEX™ treatment to 3 milliliters of LIQUISCENT™ (National Diagnostics) for liquid scintillation counting in a Beckman LS 5000CE counter. The data were analyzed using double-reciprocal plots of the initial velocity measurements; standard errors were determined by regression analysis.
Assays in the presence of the inhibitors N^ω-hydroxy-L-arginine (1 to 100 micromolar) and ABHA (0.05 to 100 micromolar) were performed as described above. The amino acid D-ornithine served as a control in these experiments, since this amino acid, unlike L-omithine, is not an inhibitor of arginase.

[2] = tested on: penile corpus cavernosum smooth muscle; assay: organ bath, NANC nerve-mediated relaxation of penile corpus cavernosum tissue strips; set-up: species or system rabbit
Source text: Penile cavernosal tissue strips were obtained from male New Zealand white rabbits (3.0-3.5 kilogram body weight) and mounted in organ bath preparations, as described (Kim et al., 1991, J. Clin. Invest. 88:112-118). Tissues strips at optimal isometric tension were contracted using 40 nanomolar endothelin-1 and subjected to electrical field stimulation (EFS), by means of two platinum plate electrodes positioned on either side of the tissue and a current amplifier in series with a square pulse stimulator. Each stimulation period lasted 20 seconds with trains of square waves having a pulse duration of 0.5 milliseconds and a potential difference of 10 volts. Frequency was varied from 1 to 10 Hertz. For all experiments, NANC responses were isolated in tissue strips by treatment with indomethacin to inhibit vasoactive prostanoid synthesis, 10 micromolar bretylium to inhibit adrenergic neurotransmission, and 1 micromolar atropine to block muscarinic acetylcholine receptors. All tissues were first subject to EFS in the absence of ABHA, and then stimulations were repeated in the presence of increasing concentrations (0.1 to 1.0 millimolar) ABHA following a 20 minute incubation period. […] Responses were further analyzed by determining the ratios of the responses in the presence and absence of ABHA treatment.

[3] = target: T1, arginase (Rattus norvegicus, UniProt P07824); assay: biochemical; conditions: Kd from competition binding experiments using N-hydroxyarginine, pH 7.5 and pH 9.0
T1 sequence (P07824 1-323): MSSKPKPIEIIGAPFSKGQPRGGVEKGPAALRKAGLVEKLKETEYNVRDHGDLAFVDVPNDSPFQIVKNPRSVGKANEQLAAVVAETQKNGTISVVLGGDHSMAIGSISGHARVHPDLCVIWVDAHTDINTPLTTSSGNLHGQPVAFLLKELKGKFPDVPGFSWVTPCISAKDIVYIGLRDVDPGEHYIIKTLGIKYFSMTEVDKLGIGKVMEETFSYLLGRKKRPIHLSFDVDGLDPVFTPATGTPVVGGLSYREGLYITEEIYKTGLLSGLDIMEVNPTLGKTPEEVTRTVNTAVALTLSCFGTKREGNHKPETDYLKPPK
Source text: Additional evidence for high affinity binding of arginase and ABHA was derived from competition binding experiments using ABHA and N-hydroxyarginine, as monitored by fluorescence spectroscopy. Addition of N-hydroxyarginine to a solution of arginase results in a significant decrease in intrinsic protein fluorescence at 327 nanometers.

[4] = target: T2, rat liver arginase (Rattus norvegicus, UniProt P07824); assay: radioactive L-[guanidino-14C]arginine arginase assay (Example 3); type: biochemical; set-up: made in house; conditions: [14C-guanidino]-L-arginine assay, low inhibitor concentrations, assuming competitive inhibition; read-out: Ki (apparent)
T2 sequence (P07824 1-323): T1 sequence (P07824 1-323)
Procedure: Assays were performed in 100 micromolar MnCl2, 100 millimolar CHES-NaOH (pH 9.0). The reactions were initiated by addition of 5 microliters of a circa 1 unit per milliliter enzyme solution to 45 microliters of reaction mixture containing CHES buffer, 1.4 millimolar L-arginine, about 5.0×10^4 counts per minute of L-[guanidino- ^14C]arginine, and variable concentrations of the appropriate inhibitor. After a 5-15 minute reaction time, 200 microliters of a stop solution containing 7 molar urea, 10 millimolar L-arginine, and 0.25 molar acetic acid (pH 4.5) was added to the reaction (arginase has essentially no activity under these conditions). [^14C]-Urea was separated from non-reacted L-[guanidino-^14 C]arginine by treatment with 200 microliters of a 1:1 (vol/vol) slurry of DOWEX™ 50 W-X8 in water, and quantitated by adding 200 microliters of the supernatant from the DOWEX™ treatment to 3 milliliters of LIQUISCINT™ (National Diagnostics) for liquid scintillation counting in a Beckman LS5000CE counter.

## N[C@@H](CCCCB(O)O)C(=O)O [compound 7, 2(S)-amino-6-boronohexanoic acid]
[1]; arginine fixed at Km, assuming competitive inhibition, read-out: estimated Ki, liver arginase activity
  Ki: 190 nM
[1]; liver homogenate
  times more potent than L-HO-Arg, liver: 5 times
[1]; liver versus IAS, rectum, brain
  potency against liver arginase activity relative to non-hepatic tissues: more potent inhibitor of non-hepatic than hepatic arginase activities
[1]; liver, read-out: IC50 for inhibition of arginase activity, liver homogenate
  IC50: 440 nM
[2]; 0.1 to 1.0 millimolar ABHA, 1 to 10 Hertz
  enhancement of relaxation in response to EFS: significant enhancement; also recorded: significantly enhanced relaxation; also recorded: statistically significant
[2]; corpus cavernosum strips contracted with endothelin-1
  relaxation in the absence of electrical stimulation: moderate relaxation
[3]
  Kd: ≤ 100 nM
[4]
  Ki: 100 nM
